We go through one compound from ChEMBL document CHEMBL3872283, “Design, Synthesis, and Evaluation of Novel and Selective G-protein Coupled Receptor 120 (GPR120) Spirocyclic Agonists” (ACS Med Chem Lett, 2017).

The source made the active and inactive calls. The calls are words filed in the database; no cut-off is given here. Bounds are passed on as bounds.

Data set [1] concerns the target Free fatty acid receptor 1 (Homo sapiens, UniProt O14842). Nature of the data set: Agonist activity at human GPR40 expressed in HEK293 cells assessed as induction of IP1 accumulation after 60 mins by HTRF assay. The format is functional, cell-based.
A short description of data set [2]: Half life in dog at 1 mg/kg, iv or 2 mg/kg, po by LC/MS/MS analysis. The format is ADME, organism-based, Canis lupus familiaris. Particulars: in vivo.
Data set [3] can be described thus: AUC in rhesus monkey at 0.5 mg/kg, iv by LC/MS/MS analysis. The format is ADME, organism-based, Macaca mulatta. The settings on record: in vivo.
A short description of data set [4]: Plasma clearance in rhesus monkey at 0.5 mg/kg, iv or 1 mg/kg, po by LC/MS/MS analysis. The format is ADME, organism-based, Macaca mulatta.
For data set [5], the target named is Voltage-gated inwardly rectifying potassium channel KCNH2 (Homo sapiens, UniProt Q12809). Nature of the data set: Displacement of [35S]-MK499 from human ERG expressed in HEK293 cell membranes.
Chain of Voltage-gated inwardly rectifying potassium channel KCNH2 (Q12809 whole entry): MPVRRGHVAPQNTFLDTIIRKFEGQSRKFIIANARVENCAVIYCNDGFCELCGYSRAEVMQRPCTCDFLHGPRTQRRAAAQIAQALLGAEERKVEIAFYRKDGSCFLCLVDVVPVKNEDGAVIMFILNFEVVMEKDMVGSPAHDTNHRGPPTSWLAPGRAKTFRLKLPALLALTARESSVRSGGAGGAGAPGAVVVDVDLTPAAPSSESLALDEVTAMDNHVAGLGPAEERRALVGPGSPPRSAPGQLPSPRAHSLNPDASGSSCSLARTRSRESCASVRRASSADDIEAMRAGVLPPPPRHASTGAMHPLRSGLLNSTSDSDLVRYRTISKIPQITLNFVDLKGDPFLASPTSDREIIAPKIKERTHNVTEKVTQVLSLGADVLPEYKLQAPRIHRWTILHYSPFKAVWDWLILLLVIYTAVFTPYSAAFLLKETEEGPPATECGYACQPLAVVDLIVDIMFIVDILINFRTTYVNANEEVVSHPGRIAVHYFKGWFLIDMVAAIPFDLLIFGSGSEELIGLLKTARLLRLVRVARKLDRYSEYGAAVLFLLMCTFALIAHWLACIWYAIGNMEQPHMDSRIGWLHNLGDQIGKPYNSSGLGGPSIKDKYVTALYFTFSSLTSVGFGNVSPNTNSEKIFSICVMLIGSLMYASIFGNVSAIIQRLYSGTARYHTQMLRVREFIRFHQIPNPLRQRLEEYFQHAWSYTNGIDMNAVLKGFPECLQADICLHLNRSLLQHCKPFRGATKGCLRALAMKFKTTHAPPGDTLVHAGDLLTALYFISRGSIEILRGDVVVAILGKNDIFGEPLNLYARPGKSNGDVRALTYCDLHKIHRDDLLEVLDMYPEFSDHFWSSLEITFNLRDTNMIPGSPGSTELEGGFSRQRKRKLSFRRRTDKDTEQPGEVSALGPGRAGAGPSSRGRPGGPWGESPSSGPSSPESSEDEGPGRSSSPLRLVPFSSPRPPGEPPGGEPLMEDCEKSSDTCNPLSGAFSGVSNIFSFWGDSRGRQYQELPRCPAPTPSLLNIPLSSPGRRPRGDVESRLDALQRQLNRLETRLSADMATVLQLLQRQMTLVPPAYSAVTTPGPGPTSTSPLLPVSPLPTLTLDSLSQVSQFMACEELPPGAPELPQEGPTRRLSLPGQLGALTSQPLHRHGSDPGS
In data set [6] the test system is Mus musculus. Nature of the data set: Antidiabetic activity in diet-induced obese mouse assessed as insulin sensitivity by measuring reduction in glucose at 30 mg/kg, po qd administered daily via gavage for 28 days measured on day 28 post dose. The format is functional, organism-based.
The subject of data set [7] is Mus musculus. Nature of the data set: Antidiabetic activity in diet-induced obese mouse assessed as increase in glucose infusion rate during hyperinsulinemic euglycemic clamp procedure at 30 mg/kg, po qd administered daily via gavage measured after 28 days. The format is functional, organism-based.
In data set [8] the test system is Mus musculus. In words: Antidiabetic activity in diet-induced obese mouse assessed as insulin sensitivity by measuring reduction in glucose at 30 mg/kg, po qd administered daily via gavage for 14 days measured on day 14 post dose. The format is functional, organism-based.
The nature of data set [9]: AUC in dog at 1 mg/kg, iv by LC/MS/MS analysis. The format is ADME, organism-based, Canis lupus familiaris. The settings on record: in vivo.
The nature of data set [10]: Half life in mouse at 2 mg/kg, iv or 10 mg/kg, po by LC/MS/MS analysis. The format is ADME, organism-based. The settings on record: in vivo.
Data set [11] deals with T1, Peroxisome proliferator-activated receptor gamma (Homo sapiens) (UniProt P37231).
T1 sequence (whole entry): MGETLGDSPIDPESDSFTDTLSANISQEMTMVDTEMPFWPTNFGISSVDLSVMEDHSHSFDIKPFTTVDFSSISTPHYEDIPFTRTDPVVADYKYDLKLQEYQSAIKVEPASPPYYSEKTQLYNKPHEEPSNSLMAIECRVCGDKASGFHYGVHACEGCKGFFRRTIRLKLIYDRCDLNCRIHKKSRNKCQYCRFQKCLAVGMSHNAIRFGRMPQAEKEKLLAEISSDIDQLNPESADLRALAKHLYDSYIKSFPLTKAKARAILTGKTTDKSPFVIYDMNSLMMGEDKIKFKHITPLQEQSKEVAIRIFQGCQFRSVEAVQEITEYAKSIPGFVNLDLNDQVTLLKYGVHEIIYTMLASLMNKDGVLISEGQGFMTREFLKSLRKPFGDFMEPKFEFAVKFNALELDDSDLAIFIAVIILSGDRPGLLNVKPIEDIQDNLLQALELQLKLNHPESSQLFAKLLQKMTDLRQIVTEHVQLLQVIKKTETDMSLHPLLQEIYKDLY
In words: Displacement of [3H]Rosiglitazone from recombinant human PPARgamma expressed in insect cells.

Data set [12] deals with T2, Free fatty acid receptor 4 (Mus musculus, UniProt Q7TMA4).
T2 sequence (Q7TMA4 whole entry): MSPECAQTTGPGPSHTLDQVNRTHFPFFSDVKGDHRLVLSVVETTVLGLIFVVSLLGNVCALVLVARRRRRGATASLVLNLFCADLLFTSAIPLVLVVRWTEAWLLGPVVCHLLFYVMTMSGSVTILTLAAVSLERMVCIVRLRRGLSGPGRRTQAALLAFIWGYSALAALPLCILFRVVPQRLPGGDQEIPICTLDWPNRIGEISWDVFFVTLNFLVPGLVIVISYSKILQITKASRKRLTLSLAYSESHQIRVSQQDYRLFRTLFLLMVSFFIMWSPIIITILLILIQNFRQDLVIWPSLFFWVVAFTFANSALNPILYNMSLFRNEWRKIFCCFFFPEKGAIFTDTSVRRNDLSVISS
In words: Agonist activity at mouse GPR120 expressed in U2OS cells assessed as induction of beta-arrestin2 recruitment after 90 mins by luminescence assay. The format is cell-based.

The nature of data set [13]: Volume of distribution at steady state in rat at 1 mg/kg, iv or 2 mg/kg, po by LC/MS/MS analysis. The format is ADME, organism-based. The settings on record: in vivo, read-out: Vdss.
A short description of data set [14]: Plasma clearance in rat at 1 mg/kg, iv or 2 mg/kg, po by LC/MS/MS analysis. The format is ADME, organism-based.
Data set [15] in a line: MRT in rhesus monkey at 0.5 mg/kg, iv or 1 mg/kg, po by LC/MS/MS analysis. The format is ADME, organism-based, Macaca mulatta. Particulars: in vivo.
For data set [16], the system named is Mus musculus. Nature of the data set: Antidiabetic activity in diet-induced obese mouse assessed as reduction in homeostatic model assessment of insulin resistance at 30 mg/kg, po qd administered daily via gavage for 14 days measured on day 14 post dose. The format is functional, organism-based.
Data set [17] is described as follows: Volume of distribution at steady state in dog at 1 mg/kg, iv or 2 mg/kg, po by LC/MS/MS analysis. The format is ADME, organism-based, Canis lupus familiaris. The settings on record: in vivo, read-out: Vdss.
The nature of data set [18]: MRT in mouse at 2 mg/kg, iv or 10 mg/kg, po by LC/MS/MS analysis. The format is ADME, organism-based. The settings on record: in vivo.
Data set [19] in a line: Protein binding in dog plasma at 1 mg/kg, iv or 2 mg/kg, po by LC/MS/MS analysis. The format is ADME, organism-based, Canis lupus familiaris. Particulars: read-out: PPB (converted).
Data set [20] concerns Mus musculus. Nature of the data set: Toxicity in diet-induced obese mouse assessed as change in body weight at 30 mg/kg, po qd administered daily via gavage for 28 days. The format is organism-based. The settings on record: in vivo, 672 h.
Data set [21] is described as follows: Oral bioavailability in mouse at 10 mg/kg by LC/MS/MS analysis. Particulars: in vivo. The format is ADME, organism-based.
Data set [22] can be described thus: Protein binding in mouse plasma at 2 mg/kg, iv or 10 mg/kg, po by LC/MS/MS analysis. The format is ADME, organism-based. The settings on record: read-out: PPB (converted).

Chain of Free fatty acid receptor 1 (O14842 whole entry): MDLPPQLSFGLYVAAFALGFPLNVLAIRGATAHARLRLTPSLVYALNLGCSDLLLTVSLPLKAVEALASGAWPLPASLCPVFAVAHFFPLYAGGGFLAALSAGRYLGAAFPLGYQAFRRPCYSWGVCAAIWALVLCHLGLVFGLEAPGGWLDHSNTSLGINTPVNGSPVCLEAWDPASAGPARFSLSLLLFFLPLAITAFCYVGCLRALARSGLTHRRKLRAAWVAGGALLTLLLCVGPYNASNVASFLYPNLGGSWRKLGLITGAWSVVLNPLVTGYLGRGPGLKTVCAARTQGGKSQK

Consider `O=C(O)CC1CCC2(CC1)CCN(c1cc(OC(F)(F)F)ccc1Cl)CC2`, for which the figures for the EC50 in [1] and in data set [12] were more than 10000 nM and 54 nM, respectively. Moreover, the half-life in data set [2] is 11 h; in data set [10], 18.1 h. In addition, the AUC in data set [3] was 8.7 µM·h; in data set [9], 4.6 µM·h. Also, the clearance in [4] is 2.7 mL/min/kg; in data set [14] it was 2.3 mL/min/kg. Also, the INH in data set [5] was more than 60 µM; in data set [11], more than 10 µM. In addition, the outcome in the data set on Mus musculus [6], in the data set on Mus musculus [7], with Mus musculus [8] and in the data set with Mus musculus [16] was Active. Also, the Vd in data set [13] came to 0.4 L/kg; in data set [17], 6.7 L/kg. In addition, the mean residence time MRT in [15] came out at 10.1 h; in data set [18], 26.5 h. Moreover, the fraction unbound was 0.0015 in data set [19] and 0.0021 in [22]. Moreover, the Activity result in the data set on Mus musculus [20] is reported as “Non-Toxic”. The same compound had a bioavailability in data set [21] of 100%.
